Source: article PMC10054553, “Development of the First ^18F-Labeled Radiohybrid-Based Minigastrin Derivative with High Target Affinity and Tumor Accumulation by Substitution of the Chelating Moiety” (Pharmaceutics, 2023)
Read-outs that look alike come from different tables or passages of the source.

Assay: Biodistribution in AR42J tumor-bearing CB17-SCID mice
Format: in vivo
Conditions: mouse; for tissue to tissue ratio at 24 h: both sexes, CB17-SCID, total radioactivity; for tissue to tissue ratio at 24 h / tissue uptake at 24 h: 24 h p.i.; for tissue uptake at 1 h: 1 h p.i.
Procedure: All animal experiments were conducted in accordance with general animal welfare regulations in Germany (German animal protection act, in the edition of the announcement, dated 18 May 2006, as amended by Article 280 of 19 June 2020, approval no. ROB-55.2-1-2532.Vet_02-18-109 by the General Administration of Upper Bavaria) and the institutional guidelines for the care and use of animals. CB17-SCID mice of both genders and aged 2–12 months (Charles River Laboratories International Inc., Sulzfeld, Germany) were allowed to acclimate at the in-house animal facility for at least one week before inoculation was performed. Tumor xenografts were established as previously reported. Exclusion criteria for animals from an experiment were either weight loss higher than 20%, a tumor size above 1500 mm^3, an ulceration of the tumor, respiratory distress or a change of behavior. None of these criteria applied to any animal from the experiment. Neither randomization nor blinding was applied in the allocation of the experiments. Health status is SPF according to FELASA recommendation.
Biodistribution studies (n = 4) and µSPECT/CT as well as µPET/CT imaging (using a MILabs VECTor^4 small-animal SPECT/PET/OI/CT device, MILabs, Utrecht, The Netherlands) at 1 and 24 h p.i. were carried out as previously published. For all ^177Lu-labeled compounds, approximately 2–3 MBq (100 pmol)—and for the ^18F-labeled analog, approximately 7 MBq (100 pmol)—were administered. For all competition studies, 2.90 mg/kg (40 nmol) of [^natLu]Lu-DOTA-MGS5 (10^−3 M in phosphate-buffered saline) were co-administered.

[1] = adrenal, 100 pmol, 100 pmol, n = 4, read-out: Adrenal activity
[2] = blood, 100 pmol, 100 pmol, n = 4, read-out: Blood activity
[3] = bone, 100 pmol, 100 pmol, n = 4, read-out: Bone activity
[4] = heart, 100 pmol, 100 pmol, n = 4, read-out: Heart activity
[5] = intestine, 100 pmol, 100 pmol, n = 4, read-out: Intestine activity
[6] = liver, 100 pmol, 100 pmol, n = 4, read-out: Liver activity
[7] = lung, 100 pmol, 100 pmol, n = 4, read-out: Lung activity
[8] = muscle, 100 pmol, 100 pmol, n = 4, read-out: Muscle activity

CCCC[C@H](NC(=O)[C@H](Cc1c[nH]c2ccccc12)NC(=O)CNC(=O)[C@H](Cc1ccc(O)cc1)NC(=O)[C@H](C)NC(=O)CC[C@@H](NC(=O)CC[C@@H](NC(=O)CC[C@@H](NC(=O)CC[C@@H](NC(=O)CC[C@@H](NC(=O)CC[C@@H](NC(=O)CC[C@@H](NC(=O)CC[C@@H](NC(=O)[C@@H](CNC(=O)c1ccc([Si](F)(C(C)(C)C)C(C)(C)C)cc1)NC(=O)CN1CCN(CC(=O)O)CCN(CC(=O)O)CCN(CC(=O)O)CC1)C(=O)O)C(=O)O)C(=O)O)C(=O)O)C(=O)O)C(=O)O)C(=O)O)C(=O)O)C(=O)N[C@@H](CC(=O)O)C(=O)N[C@@H](Cc1ccccc1)C(N)=O [[^19F]F-[^177Lu]Lu-DOTA-rhCCK-18, metal not drawn]
tissue to tissue ratio at 24 h (tumor / adrenal, 100 pmol, n = 4, read-out: Tumor-to-background ratio, Adrenal): 73.3 ± 13.4
tissue to tissue ratio at 24 h (tumor / blood, 100 pmol, n = 4, read-out: Tumor-to-background ratio, Blood): 1630 ± 823
tissue to tissue ratio at 24 h (tumor / bone, 100 pmol, n = 4, read-out: Tumor-to-background ratio, Bone): 151 ± 48
tissue to tissue ratio at 24 h (tumor / heart, 100 pmol, n = 4, read-out: Tumor-to-background ratio, Heart): 312 ± 58
tissue to tissue ratio at 24 h (tumor / intestine, 100 pmol, n = 4, read-out: Tumor-to-background ratio, Intestine): 124 ± 30
tissue to tissue ratio at 24 h (tumor / kidney, 100 pmol, n = 4, read-out: Tumor-to-background ratio, Kidney): 0.19 ± 0.01
tissue to tissue ratio at 24 h (tumor / liver, 100 pmol, n = 4, read-out: Tumor-to-background ratio, Liver): 48.1 ± 6.7
tissue to tissue ratio at 24 h (tumor / lung, 100 pmol, n = 4, read-out: Tumor-to-background ratio, Lung): 236 ± 118
tissue to tissue ratio at 24 h (tumor / muscle, 100 pmol, n = 4, read-out: Tumor-to-background ratio, Muscle): 650 ± 542
tissue to tissue ratio at 24 h (tumor / pancreas, 100 pmol, n = 4, read-out: Tumor-to-background ratio, Pancreas): 78.8 ± 17.5
tissue to tissue ratio at 24 h (tumor / spleen, 100 pmol, n = 4, read-out: Tumor-to-background ratio, Spleen): 115 ± 15
tissue to tissue ratio at 24 h (tumor / stomach, 100 pmol, n = 4, read-out: Tumor-to-background ratio, Stomach): 6.58 ± 2.77
tissue uptake at 1 h [1]: 0.52 ± 0.07 %ID/g
tissue uptake at 24 h [1]: 0.37 ± 0.12 %ID/g
tissue uptake at 24 h (adrenal, 100 pmol co-injected with DOTA-MGS5 (40 nmol), n = 2, read-out: Adrenal activity, competition studies): 5.02 ± 4.64 %ID/g
tissue uptake at 1 h [2]: 2.56 ± 0.6 %ID/g
tissue uptake at 24 h [2]: 0.02 ± 0.01 %ID/g
tissue uptake at 24 h (blood, 100 pmol co-injected with DOTA-MGS5 (40 nmol), n = 2, read-out: Blood activity, competition studies): 0.02 %ID/g
tissue uptake at 1 h (blood, heart and lung, 100 pmol, span over the three organs, read-out: Blood, heart and lung levels): 0.9 to 2.6 %ID/g
tissue uptake at 24 h (blood, heart and lung, 100 pmol, the three organs, read-out: Blood, heart and lung levels): < 0.2 %ID/g
tissue uptake at 1 h [3]: 0.48 ± 0.02 %ID/g
tissue uptake at 24 h [3]: 0.18 ± 0.03 %ID/g
tissue uptake at 1 h [4]: 0.94 ± 0.02 %ID/g
tissue uptake at 24 h [4]: 0.08 ± 0.02 %ID/g
tissue uptake at 24 h (heart, 100 pmol co-injected with DOTA-MGS5 (40 nmol), n = 2, read-out: Heart activity, competition studies): 0.08 ± 0.01 %ID/g
tissue uptake at 1 h [5]: 0.61 ± 0.11 %ID/g
tissue uptake at 24 h [5]: 0.21 ± 0.02 %ID/g
tissue uptake at 24 h (intestine, 100 pmol co-injected with DOTA-MGS5 (40 nmol), n = 2, read-out: Intestine activity, competition studies): 0.17 ± 0.06 %ID/g
tissue uptake at 1 h (kidney, 100 pmol, 100 pmol, n = 4, read-out: Kidney activity): 97.2 ± 14 %ID/g
tissue uptake at 24 h (kidney, 100 pmol co-injected with DOTA-MGS5 (40 nmol), n = 2, read-out: Kidney activity, competition studies): 193 ± 15 %ID/g
tissue uptake at 1 h [6]: 1.15 ± 0.18 %ID/g
tissue uptake at 24 h [6]: 0.53 ± 0.07 %ID/g
tissue uptake at 24 h (liver, 100 pmol co-injected with DOTA-MGS5 (40 nmol), n = 2, read-out: Liver activity, competition studies): 1.51 ± 0.02 %ID/g
tissue uptake at 1 h [7]: 2.05 ± 0.2 %ID/g
tissue uptake at 24 h [7]: 0.18 ± 0.15 %ID/g
tissue uptake at 24 h (lung, 100 pmol co-injected with DOTA-MGS5 (40 nmol), n = 2, read-out: Lung activity, competition studies): 0.76 ± 0.17 %ID/g
tissue uptake at 1 h [8]: 0.38 ± 0.03 %ID/g
tissue uptake at 24 h [8]: 0.08 ± 0.06 %ID/g
tissue uptake at 24 h (muscle, 100 pmol co-injected with DOTA-MGS5 (40 nmol), n = 2, read-out: Muscle activity, competition studies): 0.07 ± 0.04 %ID/g
tissue uptake at 1 h (pancreas, 100 pmol, 100 pmol, n = 4, read-out: Pancreas activity): 1.22 ± 0.21 %ID/g
tissue uptake at 1 h (spleen, 100 pmol, 100 pmol, n = 4, read-out: Spleen activity): 0.6 ± 0.08 %ID/g
tissue uptake at 24 h (spleen, 100 pmol co-injected with DOTA-MGS5 (40 nmol), n = 2, read-out: Spleen activity, competition studies): 0.95 ± 0.14 %ID/g
tissue uptake at 1 h (stomach, 100 pmol, 100 pmol, n = 4, read-out: Stomach activity): 4.25 ± 0.45 %ID/g
tissue uptake at 1 h (tumor, 100 pmol, 100 pmol, n = 4, AR42J tumor, read-out: Tumor activity): 24.1 ± 4.2 %ID/g
tissue uptake at 24 h (tumor, 100 pmol co-injected with DOTA-MGS5 (40 nmol), n = 2, read-out: Tumor activity, competition studies): 1.75 ± 0.26 %ID/g
